The numbers were not newly measured in publication PMC10675597, “Design, Synthesis, and Antisickling Investigation of a Thiazolidine Prodrug of TD-7 That Prolongs the Duration of Action of Antisickling Aromatic Aldehyde” (Pharmaceutics, 2023), which cites them from elsewhere.

Structures are written as SMILES.

Details of data set [1]: method as in PMID 34657559, PMID 9490025, PMID 10376886, PMID 11154732. The following applies: cited from earlier work.
Details of data set [2]: method as in PMID 15180869. The following applies: cited from earlier work.

Regarding `O=Cc1ccc(CO)o1` [5-HMF, 5-hydroxymethylfurfural], the “oral bioavailability (in words)” value in data set [1] is given as “low oral bioavailability”.

Regarding `CCOC(=O)[C@H]1CSC(c2ccc(O)c(OC)c2)N1` (some centres unmarked) [MX-1520], the “oral bioavailability compared to vanillin (in words)” value in data set [2] was “much better oral bioavailability”. Also, in data set [2] (oral, Sprague-Dawley rats), the Cmax (as a rule, the highest concentration seen after dosing) is 9 µg/mL; the “Cmax, fold greater than vanillin” value is on record as 4 fold; the “relative bioavailability, fold higher than vanillin” value is reported as 30 fold.

As to `CC(C)n1nccc1-c1ncccc1COc1cccc(O)c1C=O` [Voxelotor], the “oral bioavailability (in words)” value in data set [1] is given as “satisfactory oral bioavailability”.

For `COc1cc(C=O)ccc1O` [vanillin], the “oral bioavailability (in words)” value in data set [1] is “low oral bioavailability”. For the same molecule, the Cmax in data set [2] (oral, Sprague-Dawley rats) is 2 µg/mL.
